These results are taken from the supplement of paper PMC6045584.

± gives the standard deviation of the averaged measurements.

Compound in assay [1]: T1, CC/C(=C(\c1ccc(O)cc1)c1ccc(OCCN(C)C)cc1)c1ccccc1 [AFIMOXIFENE]
Nature of the assay: surviving fraction relative to DMSO-only wells; higher = less growth inhibition. The conditions noted are these: exposure time: 5 days. The essentials: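 At 250–500 cells per well in 384-well plates, log-phase tumour cell lines were seeded and, 24 hours on, exposed continuously for five days to inhibitors at 0.5, 1, 5, 10, 50, 100, 500 and 1000 nM. Viability readout was CellTiter-Glo luminescence, reported as surviving fraction normalised to the median of DMSO-only wells.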

Compound in assay [2]: T1, AFIMOXIFENE
Nature of the assay: area under dose-response curve of surviving fraction (unscaled, Aref=0) (surviving fraction x log10(nM)); higher = more resistant. As to conditions: exposure time: 5 days; dose range 0.5-1000 nM. An outline of the steps: (§1)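 Inhibitor was applied to tumour cell lines at eight concentrations (0.5 to 1000 nM) for five days in 384-well plates. Luminescence from CellTiter-Glo, scaled to DMSO-only wells, gave surviving fractions in three screens per line, and these were fitted by 3-parameter logistic regression with the drc R package. The area under the curve is an unscaled activity area. Aref was 0, and dose was on a log10 scale.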

Compound in assay [3]: C[C@H](CN(C)C)Oc1nc(Nc2cc3cccc(Cl)c3cn2)cnc1C#N
The description is as above. The conditions noted are these: exposure time: 5 days; dose range 0.5-1000 nM. An outline of the steps:
as §1

Compound in a further assay: Cc1ccc(NC(=O)c2ccc(CN3CCN(C)CC3)cc2)cc1Nc1nccc(-c2cccnc2)n1 [IMATINIB]
Described as above. The conditions noted are these: exposure time: 5 days; dose range 0.5-1000 nM. An outline of the steps: as §1

Compound in another assay: Cc1cn(-c2cc(NC(=O)c3ccc(C)c(Nc4nccc(-c5cccnc5)n4)c3)cc(C(F)(F)F)c2)cn1 [NILOTINIB]
Described as above. As to conditions: exposure time: 5 days; dose range 0.5-1000 nM. The essentials:
as §1

Compound in a further assay: Cn1ncnc1[C@H]1c2n[nH]c(=O)c3cc(F)cc(c23)N[C@@H]1c1ccc(F)cc1 [BMN-673]
Described as above. The conditions noted are these: exposure time: 5 days; dose range 0.5-1000 nM. The essentials: as §1

Compound in another assay: COc1cc2nccc(Oc3ccc(NC(=O)C4(C(=O)Nc5ccc(F)cc5)CC4)cc3)c2cc1OC [CABOZANTINIB]
Described as above. The conditions noted are these: exposure time: 5 days; dose range 0.5-1000 nM. The essentials: as §1

Take HMT3552 BREAST: the surviving fraction was found to be 1.05 ± 0.062 with AFIMOXIFENE [1] (0.5 nM); 1.02 ± 0.053 with AFIMOXIFENE [1] (1 nM); 1 ± 0.042 with AFIMOXIFENE [1] (10 nM); 1.15 ± 0.07 with AFIMOXIFENE [1] (50 nM); 1.18 ± 0.061 with AFIMOXIFENE [1] (100 nM); 1.18 ± 0.034 with AFIMOXIFENE [1] (500 nM). The surviving fraction with AFIMOXIFENE [1] (1000 nM) stood at 1 ± 0.076. Moreover, the “area under dose-response curve” value in the assay with AFIMOXIFENE [2] worked out at 3.53; in assay [3], 2.82; with IMATINIB, 3.57; in the assay with NILOTINIB it was 3.47; in the assay with BMN-673 it was 2.34.

Turning to HS578T BREAST, the surviving fraction with AFIMOXIFENE [1] (0.5 nM) worked out at 1.11 ± 0.14; in the assay with AFIMOXIFENE [1] (1 nM), 0.963 ± 0.32; with AFIMOXIFENE [1] (5 nM), 1.15 ± 0.17; with AFIMOXIFENE [1] (10 nM), 1.01 ± 0.1; with AFIMOXIFENE [1] (50 nM), 1.07 ± 0.062; in the assay with AFIMOXIFENE [1] (100 nM), 1.24 ± 0.11. For the same test system, the surviving fraction came to 1.19 ± 0.19 in the assay with AFIMOXIFENE [1] (500 nM) and 1.21 ± 0.15 with AFIMOXIFENE [1] (1000 nM). The “area under dose-response curve” value with AFIMOXIFENE [2] is 3.68; in the assay with CABOZANTINIB, 3.18; in assay [3], 2.54; with IMATINIB it was 3.7; with NILOTINIB it was 2.81; in the assay with BMN-673, 2.94.

As to G292 BONE, the surviving fraction with AFIMOXIFENE [1] (0.5 nM) stood at 1.02 ± 0.016; with AFIMOXIFENE [1] (1 nM) it was 1.01 ± 0.011; in the assay with AFIMOXIFENE [1] (5 nM) it was 0.98 ± 0.033; with AFIMOXIFENE [1] (10 nM), 1.02 ± 0.013; with AFIMOXIFENE [1] (50 nM), 0.9545 ± 0.0072; with AFIMOXIFENE [1] (100 nM), 1.015 ± 0.0096. The surviving fraction in the assay with AFIMOXIFENE [1] (500 nM) is 0.903 ± 0.036; with AFIMOXIFENE [1] (1000 nM), 0.931 ± 0.048. Also, the “area under dose-response curve” value in the assay with AFIMOXIFENE [2] is 3.18; in the assay with CABOZANTINIB, 3.03; in assay [3] it was 3.2; with IMATINIB, 3.31; with NILOTINIB, 3.44; in the assay with BMN-673, 2.57.

Take HCC38 BREAST: the surviving fraction in the assay with AFIMOXIFENE [1] (0.5 nM) is 1.19 ± 0.1; with AFIMOXIFENE [1] (1 nM) it was 1.1 ± 0.23; with AFIMOXIFENE [1] (5 nM), 1.19 ± 0.19; with AFIMOXIFENE [1] (10 nM), 1.2 ± 0.23; with AFIMOXIFENE [1] (100 nM) it was 1.13 ± 0.18; with AFIMOXIFENE [1] (500 nM) it was 0.99 ± 0.24. Besides, in the assay with AFIMOXIFENE [1] (1000 nM), the surviving fraction came out at 0.952 ± 0.08. In addition, the “area under dose-response curve” value in the assay with AFIMOXIFENE [2] was 3.66; with CABOZANTINIB, 4.07; in assay [3] it was 2.59; with NILOTINIB, 2.77; in the assay with BMN-673 it was 2.

Consider HMLE3 BREAST, for which the surviving fraction is 1.06 ± 0.032 in the assay with AFIMOXIFENE [1] (0.5 nM); 1.11 ± 0.062 with AFIMOXIFENE [1] (1 nM); 1.2 ± 0.014 with AFIMOXIFENE [1] (5 nM); 1.06 ± 0.05 with AFIMOXIFENE [1] (10 nM); 1.12 ± 0.06 with AFIMOXIFENE [1] (50 nM); 1.2 ± 0.12 with AFIMOXIFENE [1] (100 nM). The surviving fraction came to 1.09 ± 0.1 with AFIMOXIFENE [1] (500 nM) and 1.13 ± 0.1 in the assay with AFIMOXIFENE [1] (1000 nM). For the same test system, the “area under dose-response curve” value in the assay with AFIMOXIFENE [2] worked out at 3.71; with CABOZANTINIB, 3.06; in the assay with IMATINIB, 3.75; with NILOTINIB, 3.97; with BMN-673, 2.43.

On to CCK81 LARGE INTESTINE, for which the surviving fraction with AFIMOXIFENE [1] (0.5 nM) stood at 0.822 ± 0.1; with AFIMOXIFENE [1] (1 nM), 0.889 ± 0.095; in the assay with AFIMOXIFENE [1] (5 nM), 0.866 ± 0.083; with AFIMOXIFENE [1] (10 nM), 0.822 ± 0.09; with AFIMOXIFENE [1] (50 nM) it was 0.987 ± 0.24; with AFIMOXIFENE [1] (100 nM), 0.749 ± 0.051. For the same test system, the surviving fraction with AFIMOXIFENE [1] (500 nM) stood at 0.932 ± 0.04; in the assay with AFIMOXIFENE [1] (1000 nM), 0.82 ± 0.027. The “area under dose-response curve” value with AFIMOXIFENE [2] was determined as 2.84; with CABOZANTINIB, 2.42; in assay [3], 2.09; with IMATINIB it was 2.6; in the assay with NILOTINIB it was 2.58; in the assay with BMN-673, 2.04.

As for HCC70 BREAST, the surviving fraction with AFIMOXIFENE [1] (0.5 nM) came to 1.05 ± 0.079; with AFIMOXIFENE [1] (1 nM), 1.1 ± 0.027; in the assay with AFIMOXIFENE [1] (5 nM) it was 1.08 ± 0.074; with AFIMOXIFENE [1] (10 nM), 1.06 ± 0.03; with AFIMOXIFENE [1] (50 nM) it was 1.19 ± 0.091; in the assay with AFIMOXIFENE [1] (100 nM), 1.18 ± 0.062. Also, the surviving fraction with AFIMOXIFENE [1] (500 nM) amounted to 1.04 ± 0.076; with AFIMOXIFENE [1] (1000 nM), 1.03 ± 0.071. Besides, the “area under dose-response curve” value with AFIMOXIFENE [2] was 3.6; in the assay with CABOZANTINIB, 3.5; in assay [3], 3.06; in the assay with IMATINIB it was 3.79; in the assay with NILOTINIB, 3.93; with BMN-673, 2.62.
